Where two headings read alike, the source gives them in different places.

The values below come from US8119621B2, “Tetrahydro-cyclopentyl pyrazole cannabinoid modulators” (Janssen Pharmaceutica N.V., priority 2005, dated 2012).

One assay addresses T1, human CB1 receptor (Homo sapiens, UniProt P21554).
T1 construct: expressed in transfected cells; host or cells: SK-N-MC cells, stably transfected with pcDNA3 CB-1 (human); semi-purified membrane pellet
Briefly: Binding assay for CB1 agonists or inverse agonists ([3H]-CP-55,940 displacement, SK-N-MC membranes). To be noted: for inhibition at 0.2 µM: test concentration 0.2 μM (footnote 2). As to the method:
(§1) The human CB1 and CB2 receptors were stably expressed in SK-N-MC cells transfected with pcDNA3 CB-1 (human) or pcDNA3 CB-2 (human). The cells were grown in T-180 cell culture flasks under standard cell culture conditions at 37° C. in a 5% CO2 atmosphere. The cells were harvested by trysinization and homogenized in a homogenization buffer (10 mM Tris, 0.2 mM MgCl2, 5 mM KCl, with protease inhibitors aprotinin, leupeptin, pepstatin A and bacitracin) and centrifuged (2000 g). The supernatant was then centrifuged in 2M sucrose (31,300 g) to produce a semi-purified membrane pellet. The pellet was resuspended in homogenization and stored at −80° C.
(§2) On the day of the assay, the pellet was thawed on ice and diluted in assay buffer (50 mM Tris-HCl, 5 mM MgCl2, 2.5 mM EDTA, 0.5 mg/mL fatty acid free bovine serum albumin, pH 7.5). […] The plate was covered and incubated for 90 minutes at 30° C. The contents were then aspirated onto a Packard Unifilter GF/C filter bottom plate prewet with 0.5% polyethyleneimine. The wells of the polypropylene plate were rinsed and aspirated seven times with a 0.9% saline-0.5% Tween 20 solution. The Unifilter plate was dried, a scintillation cocktail was added to each well and the counts representing binding were quantitated in a TopCount scintillation counter.
(§3) For compounds tested, an IC50 binding value was obtained from percent inhibition studies in which various test concentrations were used. The binding value was calculated by linear regression.

The target in another assay is T2, human CB2 receptor (Homo sapiens, UniProt P34972).
T2 construct: expressed in transfected cells; host or cells: SK-N-MC cells, stably transfected with pcDNA3 CB-2 (human); semi-purified membrane pellet
T2 sequence (P34972 whole entry): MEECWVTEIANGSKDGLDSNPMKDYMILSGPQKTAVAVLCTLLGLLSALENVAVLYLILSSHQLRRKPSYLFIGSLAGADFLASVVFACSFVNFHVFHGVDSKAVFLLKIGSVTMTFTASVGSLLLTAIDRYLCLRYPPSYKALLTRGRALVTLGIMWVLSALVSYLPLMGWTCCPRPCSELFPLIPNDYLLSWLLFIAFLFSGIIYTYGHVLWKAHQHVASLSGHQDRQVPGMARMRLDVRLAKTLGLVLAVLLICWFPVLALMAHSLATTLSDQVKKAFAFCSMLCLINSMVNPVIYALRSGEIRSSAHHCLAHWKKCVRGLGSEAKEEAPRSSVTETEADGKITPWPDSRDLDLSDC
Briefly: Binding assay for CB2 agonists or inverse agonists ([3H]-CP-55,940 displacement, SK-N-MC membranes). As to conditions: for inhibition at 0.25 µM / inhibition at 0.2 µM: read-out: CB2 receptor binding percent inhibition; for inhibition at 0.2 µM: test concentration 0.2 μM (footnote 2). As to the method: as §1, §2, §3

Where [1] appears, read: read-out: CB1 receptor binding percent inhibition.
Setting [2] is: test concentration 0.25 μM (footnote 3), read-out: CB1 receptor binding percent inhibition.
[3] abbreviates: test concentration 0.25 μM (footnote 3).

T1 sequence (P21554 whole entry): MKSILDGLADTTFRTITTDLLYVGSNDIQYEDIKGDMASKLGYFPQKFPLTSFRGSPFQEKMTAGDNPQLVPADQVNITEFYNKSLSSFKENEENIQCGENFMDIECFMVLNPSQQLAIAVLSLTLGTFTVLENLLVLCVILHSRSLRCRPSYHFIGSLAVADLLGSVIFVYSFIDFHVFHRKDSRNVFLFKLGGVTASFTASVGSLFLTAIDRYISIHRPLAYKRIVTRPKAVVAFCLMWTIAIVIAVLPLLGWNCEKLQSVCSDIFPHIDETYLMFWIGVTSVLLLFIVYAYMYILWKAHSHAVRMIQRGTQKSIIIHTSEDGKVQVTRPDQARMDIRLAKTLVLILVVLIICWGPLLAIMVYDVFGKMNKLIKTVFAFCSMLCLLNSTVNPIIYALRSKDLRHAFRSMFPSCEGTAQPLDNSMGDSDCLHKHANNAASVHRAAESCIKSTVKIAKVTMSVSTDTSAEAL

`CC12CCC(C1)C(C)(C)[C@H]2NC(=O)c1nn(-c2ccc(F)cc2F)c2c1CCC2Cc1cccc(F)c1` (stereo partly drawn) [Cpd 7, 1-(2,4-difluoro-phenyl)-6-(3-fluoro-benzyl)-1,4,5,6-tetrahydro-cyclopentapyrazole-3-carboxylic acid [(2S)-1,3,3-trimethyl-bicyclo[2.2.1]hept-2-yl]-amide]: the inhibition at 0.25 µM at human CB1 receptor (setting [1]) is 60%; at human CB2 receptor, 70%.

Regarding `C[C@@H](NS(=O)(=O)/C=C/c1nn(-c2ccc(Cl)cc2Cl)c2c1CCC2Cc1cccc(Cl)c1)C1CCCCC1` (stereo partly drawn) [Cpd 9, (2E)-2-[6-(3-chloro-benzyl)-1-(2,4-dichloro-phenyl)-1,4,5,6-tetrahydro-cyclopentapyrazol-3-yl]-ethenesulfonic acid [(1R)-1-cyclohexyl-ethyl]-amide], the figures for the inhibition at 0.25 µM at human CB1 receptor (setting [2]) and at human CB2 receptor (setting [3]) were 44% and 18%, respectively.

`O=S(=O)(/C=C/c1nn(-c2ccc(Cl)cc2Cl)c2c1CCC2Cc1cccc(Cl)c1)NN1CCCCC1` (stereo not shown) [Cpd 10, (2E)-2-[6-(3-chloro-benzyl)-1-(2,4-dichloro-phenyl)-1,4,5,6-tetrahydro-cyclopentapyrazol-3-yl]-ethenesulfonic acid piperidin-1-ylamide]: the inhibition at 1 µM at human CB1 receptor (test concentration 1 μM (footnote 1), read-out: CB1 receptor binding percent inhibition) came out at 18%. For the compound `C[C@H](NS(=O)(=O)/C=C/c1nn(-c2ccc(Cl)cc2Cl)c2c1CCC2Cc1cccc(Cl)c1)c1ccccc1` (stereo partly drawn) [Cpd 11, (2E)-2-[6-(3-chloro-benzyl)-1-(2,4-dichloro-phenyl)-1,4,5,6-tetrahydro-cyclopentapyrazol-3-yl]-ethenesulfonic acid [(1S)-1-phenyl-ethyl]-amide], the inhibition at 0.25 µM at human CB1 receptor (setting [2]) is 27%. As to `O=C(N[C@@H]1c2ccccc2C[C@@H]1O)c1nn(-c2ccc(F)cc2F)c2c1CCC2Cc1cccc(F)c1` (stereo partly drawn) [Cpd 12, 1-(2,4-difluoro-phenyl)-6-(3-fluoro-benzyl)-1,4,5,6-tetrahydro-cyclopentapyrazole-3-carboxylic acid [(1R,2S)-2-hydroxy-indan-1-yl]-amide], at human CB1 receptor, the IC50 is 90 nM. Moreover, the inhibition at 0.25 µM at human CB1 receptor (setting [1]) amounted to 63%. The “CB2 receptor binding percent inhibition” value at human CB2 receptor (setting [3]) is reported as “^(3) 31%”.

In the case of `O=C(NN1CCOCC1)c1nn(-c2ccc(F)cc2F)c2c1CCC2Cc1cccc(F)c1` (stereo not shown) [Cpd 22, 1-(2,4-difluoro-phenyl)-6-(3-fluoro-benzyl)-1,4,5,6-tetrahydro-cyclopentapyrazole-3-carboxylic acid morpholin-4-ylamide], the inhibition at 0.25 µM worked out at 14% on human CB1 receptor (setting [2]) and 0% on human CB2 receptor (setting [3]). For `O=C(c1nn(-c2ccc(F)cc2F)c2c1CCC2Cc1cccc(F)c1)N1CCOCC1` (stereo not shown) [Cpd 23, [1-(2,4-difluoro-phenyl)-6-(3-fluoro-benzyl)-1,4,5,6-tetrahydro-cyclopentapyrazol-3-yl]-morpholin-4-yl-methanone], the inhibition at 0.25 µM on human CB1 receptor (setting [2]) and on human CB2 receptor (setting [3]) was 0% each time.

For the compound `O=C(N[C@H](CO)c1ccccc1)c1nn(-c2ccc(F)cc2F)c2c1CCC2Cc1cccc(F)c1` (stereo partly drawn) [Cpd 24, 1-(2,4-difluoro-phenyl)-6-(3-fluoro-benzyl)-1,4,5,6-tetrahydro-cyclopentapyrazole-3-carboxylic acid [(1S)-2-hydroxy-1-phenyl-ethyl]-amide], the inhibition at 0.2 µM on human CB1 receptor (setting [1]) and on human CB2 receptor was 0% in each case. Take `O=C(N[C@@H](CO)Cc1ccccc1)c1nn(-c2ccc(F)cc2F)c2c1CCC2Cc1cccc(F)c1` (stereo partly drawn) [Cpd 25, 1-(2,4-difluoro-phenyl)-6-(3-fluoro-benzyl)-1,4,5,6-tetrahydro-cyclopentapyrazole-3-carboxylic acid [(1R)-1-benzyl-2-hydroxy-ethyl]-amide]: the inhibition at 0.2 µM came to 23% at human CB1 receptor (setting [1]) and 31% at human CB2 receptor. In the same order, the values of `O=C(N[C@@H](CCl)c1ccccc1)c1nn(-c2ccc(F)cc2F)c2c1CCC2Cc1cccc(F)c1` (stereo partly drawn) [Cpd 26, 1-(2,4-difluoro-phenyl)-6-(3-fluoro-benzyl)-1,4,5,6-tetrahydro-cyclopentapyrazole-3-carboxylic acid [(1R)-2-chloro-1-phenyl-ethyl]-amide] are 24% and 32%.

Broadly, the inhibition is how much of the control response was suppressed. As usually defined, the IC50 is the concentration needed to halve the response being measured. A lower IC50 goes with greater potency.
